Source: publication PMC10146186, “Modulation of the Cytotoxic Properties of Pd(II) Complexes Based on Functionalized Carboxamides Featuring Labile Phosphoryl Coordination Sites” (Pharmaceutics, 2023)

Key:
[1] = system: HCT116 colorectal carcinoma cells; assay: MTT cytotoxicity assay, HCT116; format: cell-based, human; settings: 48 h exposure, read-out: IC50 ± SD, HCT116
Method: (§1) To characterize the antitumor potential of the resulting Pd(II) pincer complexes, their cytotoxicities against a panel of human solid and hematopoietic cancer cell lines, including colorectal carcinoma (HCT116), breast cancer (MCF7), prostate adenocarcinoma (PC3), glioblastoma (U251), ovarian adenocarcinoma (Scov3), chronic myelogenous leukemia (K562) and its resistant subclone (K562/iS9), multiple plasmacytoma (AMO1), and acute lymphoblastic leukemia (H9) cell lineages, were evaluated using the conventional MTT assay. […] For comparison, the inhibitory effects of the compounds explored on noncancerous human embryonic kidney cells HEK293 as well as transformed breast cells HBL100 and their doxorubicin-resistant analogs HBL100/Dox were also investigated under the same conditions.
(§2) The cytotoxic activity of the compounds explored was investigated on human colorectal carcinoma (HCT116), breast cancer (MCF7), prostate adenocarcinoma (PC3), glioblastoma (U251), ovarian adenocarcinoma (Scov3), chronic myelogenous leukemia (K562 and K562/iS9), multiple plasmacytoma (AMO1), and acute lymphoblastic leukemia (H9) cell lines, as well as human embryonic kidney (HEK293) and mammary epithelial (HBL100 and HBL100/Dox) cells used as representatives of pseudonormal cells. All cell lines were obtained from American Type Culture Collection (ATCC). RPMI-1640 and DMEM media were obtained from Gibco. Fetal bovine serum (FBS) was purchased from HyClone. Cells were cultured in RPMI-1640 or DMEM media supplemented with 10% FBS and 50 μg/mL gentamicin in a humidified incubator with 5% CO2 atmosphere. The cell growth inhibitory effects of the compounds were evaluated using the conventional MTT assay (ICN Biomedicals, Eschwege, Germany). Cells were seeded in triplicate at a cell density of 5 × 10^3/well in 96-well plates in 100 µL complete medium and preincubated for 24 h. The tested compounds were initially dissolved in DMSO. Then, the compounds at various concentrations were added to the media. The well plates were incubated for 48 h followed by addition of MTT solution (Sigma, Darmstadt, Germany) (20 μL, 5 mg/mL). The cells were incubated at 37 °C for further 3 h; then the culture medium was removed, and formazan crystals were dissolved in DMSO (70 μL). The absorbance of the resulting solutions was measured on a multi-well plate reader (Multiskan FC, Thermo scientific) at 530 nm to determine the percentage of surviving cells. The reported values of IC50 are the averages of three independent experiments (Table 2 and Table 3). Cisplatin (in the initial form of an infusion concentrate in natural saline solution) from a commercial source was used as the reference.

MCF7 breast cancer cells = assay: MTT cytotoxicity assay, MCF7; format: cell-based, human; settings: MCF7, MTT, 48 h exposure; read-out: IC50 ± SD, MCF7
Method: as §1, §2

[2] = system: PC3 prostate adenocarcinoma cells; assay: MTT cytotoxicity assay, PC3; format: cell-based, human; settings: 48 h exposure, read-out: IC50 ± SD, PC3
Method: as §1, §2

U251 glioblastoma cells = assay: MTT cytotoxicity assay, U251; format: cell-based, human; settings: 48 h exposure, read-out: IC50 ± SD, U251
Method: as §1, §2

[3] = system: Scov3 ovarian adenocarcinoma cells; assay: MTT cytotoxicity assay, Scov3; format: cell-based, human; settings: Scov3, compound concentration 80.0 μM, 48 h
Method: as §1, §2

[4] = system: HEK293 embryonic kidney cells; assay: MTT cytotoxicity assay, HEK293; format: cell-based, human; settings: HEK293 noncancerous cells, 48 h exposure, read-out: IC50 ± SD, HEK293
Method: as §1, §2

[5] = system: HBL100 mammary epithelial cells; assay: MTT cytotoxicity assay, HBL100; format: cell-based, human; settings: 48 h exposure, read-out: IC50 ± SD, HBL100
Method: as §1, §2

[6] = system: HBL100/Dox doxorubicin-resistant mammary epithelial cells; assay: MTT cytotoxicity assay, HBL100/Dox; format: cell-based, human; settings: MTT, 48 h exposure, read-out: IC50 ± SD, HBL100/Dox
Method: as §1, §2

[7] = system: K562 chronic myelogenous leukemia cells; assay: MTT cytotoxicity assay, K562; format: cell-based, human; settings: 48 h exposure, read-out: IC50 ± SD, K562
Method: as §1, §2

[8] = system: K562/iS9 resistant chronic myelogenous leukemia cells; assay: MTT cytotoxicity assay, K562/iS9; format: cell-based, human; settings: 48 h exposure, read-out: IC50 ± SD, K562/iS9
Method: as §1, §2

[9] = system: AMO1 multiple plasmacytoma cells; assay: MTT cytotoxicity assay, AMO1; format: cell-based, human; settings: AMO1, MTT, 48 h exposure; read-out: IC50 ± SD, AMO1
Method: as §1, §2

[10] = system: H9 acute lymphoblastic leukemia cells; assay: MTT cytotoxicity assay, H9; format: cell-based, human; settings: 48 h exposure, read-out: IC50 ± SD, H9
Method: as §1
as §2, with “Then, the compounds at various concentrations were added to the media. The well plates were incubated for 48 h followed by addition of MTT solution (Sigma, Darmstadt, Germany) (20 μL, 5 mg/mL). The cells were incubated at 37 °C for further 3 h; then the culture medium was removed, and formazan crystals were dissolved in DMSO (70 μL).” left out, “The reported values of IC50 are the averages of three independent experiments (Table 2 and Table 3). Cisplatin (in the initial form of an infusion concentrate in natural saline solution) from a commercial source was used as the reference.” left out

[11] = UV-vis stability study in DMSO, DMSO–water and DMSO–PBS; format: physicochemical; settings: neat DMSO, DMSO–water and DMSO–PBS solutions, over 48 h
Method: The observed dependences correlate well with our previous findings on the lability of the phosphoryl sites in palladocycles 2a,b, 3a,b and can be rationalized in terms of their coordination behavior. […] However, the presence of an additional competitive chloride anion makes complex 2b potentially more susceptible to decoordination of the phosphoryl arm. […] At least the N,N-bidentately bound core remained intact in the mentioned media over a period of 48 h.
The NMR spectra were recorded on Bruker Avance 400 and Avance 500 spectrometers, and the chemical shifts (δ) were referenced internally by the residual (^1H) or deuterated (^13C) solvent signals relative to tetramethylsilane or externally to H3PO4 (^31P) or liquid ammonia (^15N). The ^15N chemical shifts were extracted from the ^1H–^15N HMBC spectra. In all cases, the ^13C{^1H} NMR spectra were registered using the JMODECHO mode; the signals for the C nuclei bearing odd and even numbers of protons had opposite polarities. The NMR peak assignments for ligand 1a and complexes 2a, 3a,b were based on the analysis of ^1H–^1H COSY, ^1H–^13C HSQC, and ^1H–^13C HMBC spectra. The results obtained were used to assign the NMR spectra of the other compounds obtained in this study. For the NMR spectra of the representative compounds, see Figures S1–S9 (1a), S11–S22 (2a), and S24–S35 (3b) in the Supporting Information. […]

In the case of `O=C(c1ccccn1)[N](CP(=O)(c1ccccc1)c1ccccc1)[Pd][Cl]` [complex 3a, [κ^3-O,N,N-(L)Pd(II)Cl]], the IC50 [1] is reported as 36 ± 2 µM, the IC50 (MCF7 breast cancer cells) is reported as 45 ± 5 µM and the IC50 [2] is reported as 26 ± 6 µM. The IC50 (U251 glioblastoma cells) was over 80 µM, the “percentage of live cells” value [3] was 30% ^5 and the IC50 [4] was 34 ± 3 µM. It also gave an IC50 [5] of over 80 µM, an IC50 [6] of over 80 µM and an IC50 [7] of 36 ± 4 µM. For the same molecule, the IC50 [8] was 40 ± 4.5 µM, the IC50 [9] was 32 ± 2 µM and the IC50 [10] was 23 ± 1 µM. The “stability by UV-vis spectroscopy” value [11] was “high stability”.
